# Assay results reported in patent US20230364194A1, “GLP-1R/GCGR Dual Target Agonist Polypeptide Derivative for Treatment of Hepatic Fibrosis Associated with Viral Hepatitis” (Shenzhen Turier Biotech. Co., Ltd., priority 2020, published 2023).
# Starred links: 1 amine or outer side, 2 acyl side, 3 side chain; linkers in the order of their positions; H or OH if unused. Non-standard residues stand in square brackets, D forms with d. Groups on a side chain read outwards from the residue. Primed or numbered codes have the meaning given here. No end group written: not given here. *: point of attachment. C18 diacid = O=C(O)CCCCCCCCCCCCCCCCC(=O)*; C16 diacid = O=C(O)CCCCCCCCCCCCCCC(=O)*; γGlu = O=C(O)[C@H](CCC(=O)[*:2])N[*:1]; Stearoyl = CCCCCCCCCCCCCCCCCC(=O)*; Palmitoyl = CCCCCCCCCCCCCCCC(=O)*; PEG2′ = not defined here; Aib = CC(C)(N)C(=O)O
# Tested on: Hepatic stellate cell strain LX-2
# Assay: In vitro effect on expression of LX-2 cell activation marker α-SMA (Western Blot, β-actin reference)
# Type: cell-based
# Settings: LX-2 cells, 10.0 uM, 48 hours, negative control = 100%
# Text: Hepatic stellate cell strain LX-2 (from China Center for Type Culture Collection, Shanghai) was selected to study and observe the effects of polypeptide compounds 1-25 on the expression level of LX-2 cell activation marker α-smooth muscle actin (α-SMA). The control group was given the same volume of Dulbecco’s modified Eagle medium (DMEM) (from Gibco, United States), and β-actin (from TransGen Biotech) as the endogenous reference, wherein, α-SMA is a symbolic feature that distinguishes […] from myofibroblasts.
# Hepatic stellate cell LX-2 was laid on 35 mm cell culture plate, cultured with DMEM (high glucose)+10% FBS+1% double-antibody culture medium (Thermo Fisher), placed overnight when the cells grew to 70% convergence at 37° C. under the condition of 5% CO2 without serum, and treated with the above GLP-1R/GCGR dual target agonist polypeptide derivatives (namely, polypeptide compounds 1-25) (dissolved in PBS) for 48 hours from the next morning to extract cell protein, and then Western Blot was performed with β-actin as endogenous reference to analyze the expression levels of α-SMA and β-actin by gray-scale analysis using Image J 1.50i. PBS with the same volume as that in experimental group was added in negative control.
# The above polypeptide compounds 1-25 with a concentration of 10.0 µM were added, showing that they could reduce the expression of α-SMA at the concentration of 10.0 µM; and the negative control had no effect on the expression of α-SMA (referring to Table 2).
# The integrated gray scale of α-SMA/β-actin in the negative control group was considered to be 100% to analyze the in vitro inhibitory activity on hepatic fibrosis by tested polypeptides.
row,Substance,"Relative expression of α-SMA (α-SMA/β-actin, %)"
1,His-(D-Ser)-Gln-Gly-Thr-Phe-Thr-Ser-Asp-Tyr-Ser-Lys-Tyr-Leu-Asp-Glu-Lys-Ala-Ala-Lys(PEG2-PEG2-γGlu- CO(CH2)16CH3)-Glu-Phe-Ile-Glu-Trp-Leu-Leu-Asn-Gly-Gly- Gly-Pro-Ser-Ser-Gly-Ala-Pro-Pro-Pro-Ser-NH2 (H[dS]QGTFTSDYSKYLDEKAAK([PEG2′-PEG2′-γGlu-Stearoyl])EFIEWLLNGGGPSSGAPPPS-NH2) [Compound 14],47.85%
2,His-(D-Ser)-Gln-Gly-Thr-Phe-Thr-Ser-Asp-Tyr-Ser-Lys-Tyr-Leu-Asp-Lys-Lys(PEG2-PEG2-γGlu-CO(CH2)16CO2H)-Ala- Ala-His-Asp-Phe-Val-Glu-Trp-Leu-Leu-Arg-Thr-Gly-Gly-Pro-Ser-Ser-Gly-Ala-Pro-Pro-Pro-Ser-NH2 [Compound 7],46.53%
3,His-Aib-Gln-Gly-Thr-Phe-Thr-Ser-Asp-Lys(PEG2-PEG2-yGlu- CO(CH2)14CH3)-Ser-Lys-Tyr-Leu-Asp-Glu-Arg-Arg-Ala-Gln- Asp-Phe-Val-Gln-Trp-Leu-Leu-Asp-Gly-Gly-Gly-Pro-Ser-Ser-Gly-Ala-Pro-Pro-Pro-Ser-NH2 (H[Aib]QGTFTSDK([PEG2′-PEG2′-γGlu-Palmitoyl])SKYLDERRAQDFVQWLLDGGGPSSGAPPPS-NH2) [Compound 6],42.34%
4,His-(D-Ser)-Gln-Gly-Thr-Phe-Thr-Ser-Asp-Tyr-Ser-Lys-Tyr-Leu-Asp-Lys(PEG2-PEG2-γGlu-CO(CH2)16CH3)-Arg-Arg-Ala- Gln-Asp-Phe-Val-Gln-Trp-Leu-Met-Asn-Thr-Gly-Gly-Pro-Ser-Ser-Gly-Ala-Pro-Pro-Pro-Ser-NH2 (H[dS]QGTFTSDYSKYLDK([PEG2′-PEG2′-γGlu-Stearoyl])RRAQDFVQWLMNTGGPSSGAPPPS-NH2) [Compound 19],44.78%
5,His-(D-Ser)-Gln-Gly-Thr-Phe-Thr-Ser-Asp-Tyr-Ser-Lys-Tyr-Leu-Asp-Lys(PEG2-PEG2-yGlu-CO(CH2)16CO2H)-Arg-Arg- Ala-Gln-Asp-Phe-Val-Gln-Trp-Leu-Leu-Asn-Thr-Gly-Gly-Pro-Ser -Ser-Gly-Ala-Pro-Pro-Pro-Ser-NH2 (H[dS]QGTFTSDYSKYLDK([PEG2′-PEG2′-γGlu-C18 diacid])RRAQDFVQWLLNTGGPSSGAPPPS-NH2) [Compound 22],48.76%
6,His-(D-Ser)-Gln-Gly-Thr-Phe-Thr-Ser-Asp-Tyr-Ser-Lys-Tyr-Leu-Asp-Glu-Lys-Ala-Ala-Lys(PEG2-PEG2-γGlu- CO(CH2)14C3)-Glu-Phe-Ile-Glu-Trp-Leu-Leu-Arg-Gly-Gly- Gly-Pro-Ser-Ser-Gly-Ala-Pro-Pro-Pro-Ser-NH2 (H[dS]QGTFTSDYSKYLDEKAAK([PEG2′-PEG2′-γGlu-Palmitoyl])EFIEWLLRGGGPSSGAPPPS-NH2) [Compound 10],46.35%
7,His-Aib-Gln-Gly-Thr-Phe-Thr-Ser-Asp-Lys(PEG2-PEG2-yGlu- CO(CH2)16CH3)-Ser-Lys-Tyr-Leu-Asp-Glu-Arg-Arg-Ala-Gln- Asp-Phe-Val-Gln-Trp-Leu-Leu-Asp-Gly-Gly-Pro-Ser-Ser-Gly-Ala-Pro-Pro-Pro-Ser-NH2 (H[Aib]QGTFTSDK([PEG2′-PEG2′-γGlu-Stearoyl])SKYLDERRAQDFVQWLLDGGPSSGAPPPS-NH2) [Compound 4],40.19%
8,His-(D-Ser)-Gln-Gly-Thr-Phe-Thr-Ser-Asp-Tyr-Ser-Lys-Tyr-Leu-Asp-Glu-Lys(PEG2-PEG2-γGlu-CO(CH2)16CO2H)-Ala- Ala-His-Asp-Phe-Val-Glu-Trp-Leu-Leu-Asn-Gly-Gly-Gly-Pro-Ser-Ser-Gly-Ala-Pro-Pro-Pro-Ser-NH2 (H[dS]QGTFTSDYSKYLDEK([PEG2′-PEG2′-γGlu-C18 diacid])AAHDFVEWLLNGGGPSSGAPPPS-NH2) [Compound 9],40.89%
9,His-(D-Ser)-Gln-Gly-Thr-Phe-Thr-Ser-Asp-Tyr-Ser-Lys-Tyr-Leu-Asp-Glu-Lys-Ala-Ala-Lys(PEG2-PEG2-γGlu- CO(CH2)16CO2H)-Glu-Phe-Ile-Glu-Trp-Leu-Leu-Arg-Thr-Gly- Gly-Pro-Ser-Ser-Gly-Ala-Pro-Pro-Pro-Ser-NH2 (H[dS]QGTFTSDYSKYLDEKAAK([PEG2′-PEG2′-γGlu-C18 diacid])EFIEWLLRTGGPSSGAPPPS-NH2) [Compound 8],39.92%
10,His-Aib-Gln-Gly-Thr-Phe-Thr-Ser-Asp-Lys(PEG2-PEG2-γGlu- CO(CH2)14CO2H)-Ser-Lys-Tyr-Leu-Asp-Glu-Arg-Arg-Ala- Gln-Asp-Phe-Val-Gln-Trp-Leu-Leu-Asp-Gly-Gly-Gly-Pro-Ser-Ser-Gly-Ala-Pro-Pro-Pro-Ser-NH2 (H[Aib]QGTFTSDK([PEG2′-PEG2′-γGlu-C16 diacid])SKYLDERRAQDFVQWLLDGGGPSSGAPPPS-NH2) [Compound 3],45.28%
11,His-(D-Ser)-Gln-Gly-Thr-Phe-Thr-Ser-Asp-Tyr-Ser-Lys-Tyr-Leu-Asp-Glu-Lys-Ala-Ala-Lys(PEG2-PEG2-γGlu-CO(CH2)14CO2H)-Glu-Phe-Ile-Glu-Trp-Leu-Leu-Asn-Gly- Gly-Gly-Pro-Ser-Ser-Gly-Ala-Pro-Pro-Pro-Ser-NH2 (H[dS]QGTFTSDYSKYLDEKAAK([PEG2′-PEG2′-γGlu-C16 diacid])EFIEWLLNGGGPSSGAPPPS-NH2) [Compound 13],40.46%
12,His-(D-Ser)-Gln-Gly-Thr-Phe-Thr-Ser-Asp-Tyr-Ser-Lys-Tyr-Leu-Asp-Lys-Lys(PEG2-PEG2-γGlu-CO(CH2)14CH3)-Arg-Ala- Gln-Asp-Phe-Val-Gln-Trp-Leu-Met-Asn-Thr-Gly-Gly-Pro-Ser-Ser-Gly-Ala-Pro-Pro-Pro-Ser-NH2 (H[dS]QGTFTSDYSKYLDKK([PEG2′-PEG2′-γGlu-Palmitoyl])RAQDFVQWLMNTGGPSSGAPPPS-NH2) [Compound 16],40.86%
13,His-(D-Ser)-Gln-Gly-Thr-Phe-Thr-Ser-Asp-Tyr-Ser-Lys-Tyr-Leu-Asp-Lys(PEG2-PEG2-yGlu-CO(CH2)16CO2H)-Arg-Arg- Ala-Gln-Asp-Phe-Val-Gln-Trp-Leu-Nle-Asn-Thr-Gly-Gly-Pro-Ser -Ser-Gly-Ala-Pro-Pro-Pro-Ser-NH2 (HXQGTFTSDYSKYLDKRRAQDFVQWLXNTGGPSSGAPPPS; D-Ser; Nle; PEG2-PEG2-γGlu-C18 diacid lipidation; C-terminal amide; (2)..(2) Xaa=D-Ser; (16)..(16) A side chain of Lys is linked to -PEG2-PEG2-AGlu-CO(CH2)16CO2H; (27)..(27) Xaa=Nle) [Compound 21],43.39%
14,His-(D-Ser)-Gln-Gly-Thr-Phe-Thr-Ser-Asp-Tyr-Ser-Lys-Tyr-Leu-Asp-Lys(PEG2-PEG2-CO(CH2)16CO2H)-Arg-Arg-Ala- Gln-Asp-Phe-Val-Gln-Trp-Leu-Nle-Asn-Thr-Gly-Gly-Pro-Ser-Ser-Gly-Ala-Pro-Pro-Pro-Ser-NH2 (HXQGTFTSDYSKYLDKRRAQDFVQWLXNTGGPSSGAPPPS; D-Ser; Nle; PEG2-PEG2-C18 diacid lipidation; C-terminal amide; (2)..(2) Xaa=D-Ser; (16)..(16) A side chain of Lys is linked to -PEG2-PEG2-CO(CH2)16CO2H; (27)..(27) Xaa=Nle) [Compound 24],52.65%
15,His-(D-Ser)-Gln-Gly-Thr-Phe-Thr-Ser-Asp-Tyr-Ser-Lys-Tyr-Leu-Asp-Lys(PEG2-PEG2-γGlu-CO(CH2)16CO2H)-Arg-Arg- Ala-Gln-Asp-Phe-Val-Gln-Trp-Leu-Met-Asn-Thr-Gly-Gly-Pro-Ser-Ser-Gly-Ala-Pro-Pro-Pro-Ser-NH2 (H[dS]QGTFTSDYSKYLDK([PEG2′-PEG2′-γGlu-C18 diacid])RRAQDFVQWLMNTGGPSSGAPPPS-NH2) [Compound 17],38.78%
16,His-(D-Ser)-Gln-Gly-Thr-Phe-Thr-Ser-Asp-Tyr-Ser-Lys-Tyr-Leu-Asp-Lys(PEG2-PEG2-CO(CH2)16CO2H)-Arg-Arg-Ala- Gln-Asp-Phe-Val-Gln-Trp-Leu-Met-Asn-Thr-Gly-Gly-Pro-Ser-Ser-Gly-Ala-Pro-Pro-Pro-Ser-NH2 (H[dS]QGTFTSDYSKYLDK([PEG2′-PEG2′-C18 diacid])RRAQDFVQWLMNTGGPSSGAPPPS-NH2) [Compound 18],45.95%
17,His-(D-Ser)-Gln-Gly-Thr-Phe-Thr-Ser-Asp-Tyr-Ser-Lys-Tyr-Leu-Asp-Glu-Lys-Ala-Ala-Lys(PEG2-PEG2-yGlu- CO(CH2)16CO2H)-Glu-Phe-Ile-Glu-Trp-Leu-Leu-Asn-Gly- Gly-Gly-Pro-Ser-Ser-Gly-Ala-Pro-Pro-Pro-Ser-NH2 (H[dS]QGTFTSDYSKYLDEKAAK([PEG2′-PEG2′-γGlu-C18 diacid])EFIEWLLNGGGPSSGAPPPS-NH2) [Compound 12],41.99%
18,His-(D-Ser)-Gln-Gly-Thr-Phe-Thr-Ser-Asp-Tyr-Ser-Lys-Tyr-Leu-Asp-Lys(PEG2-PEG2-γGlu-CO(CH2)14CH3)-Arg-Arg-Ala- Gln-Asp-Phe-Val-Gln-Trp-Leu-Met-Asn-Thr-Gly-Gly-Pro-Ser-Ser-Gly-Ala-Pro-Pro-Pro-Ser-NH2 (H[dS]QGTFTSDYSKYLDK([PEG2′-PEG2′-γGlu-Palmitoyl])RRAQDFVQWLMNTGGPSSGAPPPS-NH2) [Compound 1],57.59%
